Results taken from ChEMBL document CHEMBL5380779, “Small Molecules Targeting the RNA-Binding Protein HuR Inhibit Tumor Growth in Xenografts” (J Med Chem, 2023).
Calls of active or inactive are those of the source. The calls are words filed in the database; no cut-off is given here.

What was measured:
[1] = target: ELAV-like protein 1 (Homo sapiens) (UniProt Q15717); experiment: Inhibition of TGFbeta2-induced HuR protein expression in human MDA-MB-231 cells at 10 uM incubated for 48 hrs by Western blotting analysis; assay type: cell-based
ELAV-like protein 1 (Homo sapiens), sequence (Q15717 whole entry): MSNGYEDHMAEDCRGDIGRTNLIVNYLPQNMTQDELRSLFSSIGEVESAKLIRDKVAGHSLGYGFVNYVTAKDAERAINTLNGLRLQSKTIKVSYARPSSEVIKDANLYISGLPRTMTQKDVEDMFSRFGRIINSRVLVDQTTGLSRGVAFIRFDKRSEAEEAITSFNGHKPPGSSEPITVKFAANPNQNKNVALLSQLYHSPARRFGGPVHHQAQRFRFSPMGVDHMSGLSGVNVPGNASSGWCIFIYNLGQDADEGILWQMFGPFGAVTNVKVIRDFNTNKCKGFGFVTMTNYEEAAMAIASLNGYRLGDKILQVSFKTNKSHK

MDA-MB-231 [2] = experiment: Inhibition of HuR-THBS1 mRNA binding in human MDA-MB-231 cells assessed as half life of THBS1 in presence of actinomycin D (reference value: 10.46 hrs); assay type: cell-based
[3] = target: RNA-binding protein Musashi homolog 2 (Homo sapiens) (UniProt Q96DH6); experiment: Inhibition of TGFbeta1-induced Msi2 protein expression in human MDA-MB-231 cells at 10 uM incubated for 48 hrs by Western blotting analysis; assay type: cell-based
RNA-binding protein Musashi homolog 2 (Homo sapiens), sequence (Q96DH6 whole entry): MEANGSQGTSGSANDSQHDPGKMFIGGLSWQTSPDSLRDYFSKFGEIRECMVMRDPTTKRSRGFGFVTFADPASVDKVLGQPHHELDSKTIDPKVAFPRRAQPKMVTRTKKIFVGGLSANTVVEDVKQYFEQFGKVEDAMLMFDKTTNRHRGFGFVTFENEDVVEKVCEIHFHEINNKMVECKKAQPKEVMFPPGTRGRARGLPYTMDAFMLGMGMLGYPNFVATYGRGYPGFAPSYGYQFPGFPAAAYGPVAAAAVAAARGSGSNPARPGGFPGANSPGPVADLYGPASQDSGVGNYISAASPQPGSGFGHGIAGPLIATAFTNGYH

[4] = Antitumor activity against human 2LMP cells xenografted athymic NCr-nu/nu mouse assessed as tumor growth inhibition at 50 mg/kg, ip administered 5 times a week for 3 weeks; assay type: functional; conditions: 504 h, read-out: TGI
MDA-MB-231 [5] = experiment: Downregulation of TGFB2 mRNA expression in human MDA-MB-231 cells transfected with THBS1-ORF at 5 to 10 uM incubated for 24 hrs; assay type: functional, cell-based; conditions: dose 5-10 µM
MDA-MB-231 [6] = experiment: Inhibition of HuR-THBS1 mRNA binding in human MDA-MB-231 cells incubated for 6 hrs by RNP immunoprecipitation assay; assay type: cell-based
MDA-MB-231 [7] = experiment: Downregulation of Msi2 protein expression in human MDA-MB-231 cells incubated for 48 hrs by Western blotting analysis; assay type: functional, cell-based; conditions: dose 5-10 µM
MDA-MB-231 [8] = experiment: Inhibition of cell invasion of human MDA-MB-231 cells at 10 uM incubated for 24 hrs by crystal violet staining based analysis; assay type: functional
MDA-MB-231 [9] = experiment: Cytotoxicity against human MDA-MB-231 cells assessed as inhibition of cell growth by MTT assay; assay type: functional, cell-based
[10] = target: Thrombospondin-1 (Homo sapiens) (UniProt P07996); experiment: Inhibition of TGFbeta1-induced THBS1 protein expression in human MDA-MB-231 cells at 10 uM incubated for 48 hrs by Western blotting analysis; assay type: cell-based
Thrombospondin-1 (Homo sapiens), sequence (P07996 19-1170 limits assumed): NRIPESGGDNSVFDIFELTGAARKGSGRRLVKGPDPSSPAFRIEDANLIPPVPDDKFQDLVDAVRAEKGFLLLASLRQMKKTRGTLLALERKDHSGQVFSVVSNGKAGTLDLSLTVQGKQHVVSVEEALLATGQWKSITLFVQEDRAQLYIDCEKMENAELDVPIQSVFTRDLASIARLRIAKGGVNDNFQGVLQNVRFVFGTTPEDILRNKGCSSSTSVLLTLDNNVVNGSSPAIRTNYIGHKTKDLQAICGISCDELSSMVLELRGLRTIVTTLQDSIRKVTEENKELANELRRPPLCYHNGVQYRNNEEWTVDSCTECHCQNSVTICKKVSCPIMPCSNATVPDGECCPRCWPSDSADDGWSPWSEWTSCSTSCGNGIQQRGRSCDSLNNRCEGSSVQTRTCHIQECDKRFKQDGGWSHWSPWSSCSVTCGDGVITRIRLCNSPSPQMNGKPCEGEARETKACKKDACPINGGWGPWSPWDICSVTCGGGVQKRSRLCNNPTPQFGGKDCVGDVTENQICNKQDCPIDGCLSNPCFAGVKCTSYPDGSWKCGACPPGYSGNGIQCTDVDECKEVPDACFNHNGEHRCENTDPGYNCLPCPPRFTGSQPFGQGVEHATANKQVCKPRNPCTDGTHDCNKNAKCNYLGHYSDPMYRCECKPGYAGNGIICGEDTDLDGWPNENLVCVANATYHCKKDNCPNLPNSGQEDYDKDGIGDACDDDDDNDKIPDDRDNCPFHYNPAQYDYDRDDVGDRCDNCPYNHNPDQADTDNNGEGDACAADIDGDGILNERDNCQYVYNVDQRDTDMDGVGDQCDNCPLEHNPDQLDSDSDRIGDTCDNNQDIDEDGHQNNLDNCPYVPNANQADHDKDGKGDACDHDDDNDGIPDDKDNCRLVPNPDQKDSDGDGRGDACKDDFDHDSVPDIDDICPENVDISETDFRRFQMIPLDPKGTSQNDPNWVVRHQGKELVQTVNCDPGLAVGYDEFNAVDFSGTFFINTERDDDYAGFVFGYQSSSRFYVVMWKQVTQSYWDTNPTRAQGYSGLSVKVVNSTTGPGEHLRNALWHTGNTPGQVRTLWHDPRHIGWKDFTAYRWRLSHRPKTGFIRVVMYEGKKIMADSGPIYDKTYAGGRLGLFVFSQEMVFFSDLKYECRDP

[11] = target: ELAV-like protein 1 (Homo sapiens) (UniProt Q15717); experiment: Inhibition of TGFbeta1-induced HuR protein expression in human MDA-MB-231 cells at 10 uM incubated for 48 hrs by Western blotting analysis; assay type: cell-based
MDA-MB-231 [12] = experiment: Antitumor activity against human MDA-MB-231 cells xenografted athymic NCr-nu/nu mouse assessed as reduction in tumor size at 50 mg/kg, ip administered 5 times a week for 3 weeks in presence of docetaxel; assay type: functional, organism-based
MDA-MB-231 [13] = experiment: Antitumor activity against human MDA-MB-231 cells xenografted athymic NCr-nu/nu mouse assessed as tumor growth delay by measuring tumor size at 400 mm^3 at 50 mg/kg, ip administered 5 times a week for 3 weeks in presence of docetaxel (reference value: 15 days); assay type: functional
MDA-MB-231 [14] = experiment: Downregulation of Bcl-2 protein expression in human MDA-MB-231 cells incubated for 48 hrs by Western blotting analysis; assay type: functional, cell-based; conditions: dose 5-10 µM
MDA-MB-231 [15] = experiment: Antitumor activity against human MDA-MB-231 cells xenografted athymic NCr-nu/nu mouse assessed as tumor growth delay by measuring tumor size at 400 mm^3 at 50 mg/kg, ip administered 5 times a week for 3 weeks (reference value: 15 days); assay type: functional
MDA-MB-231 [16] = experiment: Cytotoxicity against HuR knockout 2 human MDA-MB-231 cells assessed as inhibition of cell growth by MTT assay (reference value: 5.320 uM); assay type: functional, cell-based
MDA-MB-231 [17] = experiment: Downregulation of XIAP protein expression in human MDA-MB-231 cells incubated for 48 hrs by Western blotting analysis; assay type: functional, cell-based; conditions: dose 5-10 µM
MDA-MB-231 [18] = experiment: Cytotoxicity against HuR knockout 1 human MDA-MB-231 cells assessed as inhibition of cell growth by MTT assay (reference value: 5.320 uM); assay type: functional, cell-based
[19] = Inhibition of full-length HuR-ARE fluorescein-labeled Msi1 mRNA binding (unknown origin) incubated for 2 hrs by fluorescence polarization assay; design: species or system Homo sapiens
[20] = target: Thrombospondin-1 (Homo sapiens) (UniProt P07996); experiment: Inhibition of TGFbeta2-induced THBS1 protein expression in human MDA-MB-231 cells at 10 uM incubated for 48 hrs by Western blotting analysis; assay type: cell-based
MDA-MB-231 [21] = experiment: Inhibition of HuR-Bcl-2 mRNA binding in human MDA-MB-231 cells at 10 uM incubated for 6 hrs by RNP immunoprecipitation assay; assay type: cell-based
MDA-MB-231 [22] = experiment: Inhibition of HuR-TGFB2 mRNA binding in human MDA-MB-231 cells assessed as half life of TGFB2 in presence of actinomycin D (reference value: 7.202 hrs); assay type: cell-based
MDA-MB-231 [23] = experiment: Inhibition of HuR-XIAP mRNA binding in human MDA-MB-231 cells at 10 uM incubated for 6 hrs by RNP immunoprecipitation assay; assay type: cell-based
MDA-MB-231 [24] = experiment: Inhibition of HuR-16-nt biotinylated ARE Msi1 mRNA binding in human MDA-MB-231 cells at 20 uM by Western blotting analysis based pull-down assay; assay type: cell-based
MDA-MB-231 [25] = experiment: Inhibition of HuR-Msi2 mRNA binding in human MDA-MB-231 cells at 10 uM incubated for 6 hrs by RNP immunoprecipitation assay; assay type: cell-based
MDA-MB-231 [26] = experiment: Inhibition of HuR-TGFB2 mRNA binding in human MDA-MB-231 cells incubated for 6 hrs by RNP immunoprecipitation assay; assay type: cell-based
[27] = Toxicity in athymic NCr-nu/nu mouse xenografted with human 2LMP cells assessed as effect on body weight gain at 50 mg/kg, ip administered 5 times a week for 3 weeks; assay type: organism-based; conditions: in vivo, 504 h
MDA-MB-231 [28] = experiment: Antitumor activity against human MDA-MB-231 cells xenografted athymic NCr-nu/nu mouse assessed as reduction in tumor size at 50 mg/kg, ip administered 5 times a week for 3 weeks; assay type: functional, organism-based
[29] = target: RNA-binding protein Musashi homolog 2 (Homo sapiens) (UniProt Q96DH6); experiment: Inhibition of TGFbeta2-induced Msi2 protein expression in human MDA-MB-231 cells at 10 uM incubated for 48 hrs by Western blotting analysis; assay type: cell-based
MDA-MB-231 [30] = experiment: Downregulation of HuR protein expression in human MDA-MB-231 cells at 5 to 10 uM incubated for 48 hrs by Western blotting analysis; assay type: functional, cell-based; conditions: dose 5-10 µM
[31] = target: ELAV-like protein 1 (Homo sapiens) (UniProt Q15717); experiment: Thermal stabilization of HuR in human MDA-MB-231 cells at 20 uM at 42 to 54 degreeC incubated for 1 hr by western blot based cellular thermal shift assay; assay type: cell-based

inhibition [1]: Active
inhibition [3]: Active
inhibition [10]: Active
inhibition [11]: Active
IC50 [19]: 2.77 µM
Ki [19]: 0.65 µM
inhibition [20]: Active
inhibition [29]: Active
Activity [31]: Active
Compound: CC(C)(C)c1ccc(C(=O)Nc2ccc3[nH]c(C(=O)NO)cc3c2)cc1
T1/2 (MDA-MB-231 [2]): 6.15 h
inhibition in vivo at 50 mg/kg [4]: 35%
Activity (MDA-MB-231 [5]): Active
inhibition (MDA-MB-231 [6]): Active
Activity (MDA-MB-231 [7]): Dose-Dependent Effect
inhibition (MDA-MB-231 [8]): Active
IC50 (MDA-MB-231 [9]): 4.74 µM
Activity (MDA-MB-231 [12]): Active
Time (MDA-MB-231 [13]): 32 days
Activity (MDA-MB-231 [14]): Dose-Dependent Effect
Time (MDA-MB-231 [15]): 18 days
IC50 (MDA-MB-231 [16]): 12.5 µM
Activity (MDA-MB-231 [17]): Dose-Dependent Effect
IC50 (MDA-MB-231 [18]): 16.1 µM
inhibition (MDA-MB-231 [21]): Active
T1/2 (MDA-MB-231 [22]): 4.76 h
inhibition (MDA-MB-231 [23]): Active
inhibition (MDA-MB-231 [24]): Active
inhibition (MDA-MB-231 [25]): Active
inhibition (MDA-MB-231 [26]): Active
Activity [27]: Non-Toxic
Activity (MDA-MB-231 [28]): Active
Activity (MDA-MB-231 [30]): inactive
